In patent US6986896B2, “Method of treating fungal conditions of the skin” (Bradley Pharmaceuticals, Inc., priority 2002, dated 2006):

System: Trychophyton rubrum
Assay: Percent kill rate of topical products inoculated with T. rubrum (residual microbial content by serial dilution)
Assay type: cell-based
Experimental: Various compositions, e.g. creams, lotions, and gels, containing urea as the sole active ingredient at various concentrations were tested against Trychophyton rubrum, a fungus typically implicated in Moccasin tinea pedis and onychomycosis, and compared to traditional antifungal compositions. A solution of the individual or combination products were inoculated with a known starting concentration of T. rubrum. These solutions were then retested at the specific time intervals to determine the residual microbial content.
The decrease in the residual microbial content calculated as a percentage of its initial starting concentration is the percent kill rate reported in the following table.

NC(N)=O [urea]
antifungal activity (conclusion from the kill rate tests): effective antifungal agent
